Measurements: patent US5877013A, “Rhodosporidium D-amino acid oxidase” (Food Industry Research and Development Institute, priority 1997, dated 1999)

Experiments:
R. toruloides DAO [1] = molecular target: T1, R. toruloides DAO (Rhodotorula toruloides, UniProt P80324); assay: activity of purified DAO on amino acid substrates and Ceph C (relative activity, apparent Km); type: biochemical; parameters: made in house; host or cells: R. toruloides cells (native source, not recombinant); settings: for relative activity of the purified DAO on substrate / activity of the purified DAO on substrate: purified R. toruloides DAO
T1 sequence (P80324 25-368): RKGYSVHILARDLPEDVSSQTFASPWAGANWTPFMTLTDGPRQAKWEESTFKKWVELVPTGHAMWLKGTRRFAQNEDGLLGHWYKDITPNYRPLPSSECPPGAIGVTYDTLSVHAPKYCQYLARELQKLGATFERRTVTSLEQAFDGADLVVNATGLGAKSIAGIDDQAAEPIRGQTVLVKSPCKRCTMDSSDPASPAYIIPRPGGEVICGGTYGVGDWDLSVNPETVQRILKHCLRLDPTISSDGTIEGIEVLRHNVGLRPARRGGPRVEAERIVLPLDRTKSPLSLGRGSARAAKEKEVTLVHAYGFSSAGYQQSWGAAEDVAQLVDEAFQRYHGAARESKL

R. toruloides DAO [2] = molecular target: T1, R. toruloides DAO
R. toruloides DAO [3] = molecular target: T1, R. toruloides DAO; assay: biochemical
[4] = substrate: CSCC[C@@H](N)C(=O)O; assay: purified protein, by the assay type; settings: other: purified R. toruloides DAO
[5] = substrate: C[C@@H](N)C(=O)O; assay: purified protein, by the assay type; settings: other: purified R. toruloides DAO
[6] = substrate: N[C@H](CO)C(=O)O; assay: purified protein, by the assay type; type: biochemical; settings: other: purified R. toruloides DAO
[7] = substrate: [H][C@]12SCC(COC(C)=O)=C(C(=O)O)N1C(=O)[C@H]2NC(=O)CCC[C@@H](N)C(=O)O; assay: purified protein, by the assay type; type: biochemical; settings: other: purified R. toruloides DAO
[8] = substrate: N[C@H](Cc1c[nH]c2ccccc12)C(=O)O; assay: purified protein, by the assay type; type: biochemical; settings: other: purified R. toruloides DAO

CC(=O)OCC1=C(C(=O)O)N2C(=O)[C@@H](NC(=O)CCC[C@@H](N)C(=O)O)[C@H]2SC1 [Ceph C, cephalosporin C]
activity on Ceph C as compared with activity against D-alanine (R. toruloides DAO [1]; purified DAO, SEQ ID NO: 3): 95%

N[C@H](CC(=O)O)C(=O)O [D-aspartic acid]
relative activity of the purified DAO on substrate (R. toruloides DAO [1]): < 20 % of maximal

N[C@H](CCC(=O)O)C(=O)O [D-glutamic acid]
relative activity of the purified DAO on substrate (R. toruloides DAO [1]): < 20 % of maximal

NCCCC[C@@H](N)C(=O)O [D-lysine]
relative activity of the purified DAO on substrate (R. toruloides DAO [1]): < 20 % of maximal

C[C@H](O)[C@@H](N)C(=O)O [D-threonine]
relative activity of the purified DAO on substrate (R. toruloides DAO [1]): < 20 % of maximal

N[C@H](Cc1c[nH]c2ccccc12)C(=O)O [D-tryptophan]
activity of the purified DAO on substrate (R. toruloides DAO [1]): best substrate

C[C@H](N)C(=O)O [L-alanine]
activity of the purified DAO on substrate (R. toruloides DAO [1]): No activity

CSCC[C@H](N)C(=O)O [L-methionine]
activity of the purified DAO on substrate (R. toruloides DAO [1]): No activity

N[C@@H](Cc1ccccc1)C(=O)O [L-phenylalanine]
activity of the purified DAO on substrate (R. toruloides DAO [1]): No activity

O=C(O)[C@@H]1CCCN1 [L-proline]
activity of the purified DAO on substrate (R. toruloides DAO [1]): No activity

O=C(O)c1ccccc1 [benzoic acid]
enzyme inhibited in the presence of aromatic acid (R. toruloides DAO [2]): 49%

O=C(O)c1cccnc1 [nicotinic acid]
enzyme inhibited in the presence of aromatic acid (R. toruloides DAO [2]): 21%

Nc1ccc(C(=O)O)cc1 [p-aminobenzoic acid]
Ki (R. toruloides DAO [3]): 300 µM
enzyme inhibited in the presence of aromatic acid (R. toruloides DAO [2]): 72%

B1: R. toruloides DAO (Rhodotorula toruloides) (protein)
chain: T1 sequence (P80324 25-368)
notes: made in house; host or cells: R. toruloides cells (native source, not recombinant)
Km [4]: 220 µM
Km [5]: 680 µM
Km [6]: 3400 µM
Km [7]: 650 µM
Km [8]: 180 µM
